Measured values: US20070099929A1, “Substituted thiophenes” (AiCuris GmbH & Co. KG, priority 2003, published 2007)

System: HCV replicon HuH5-2
Assay: Cellular HCV-RNA replication assay (replicon system), luciferase reporter, with Alamar Blue cytotoxicity test
Format: cell-based, hepatitis C virus
Settings: for SI (selectivity index) = CC50/EC50: CC50 from Alamar Blue fluorescence, EC50 from luciferase activity, HuH5-2 cells; for EC50: Hepatitis C virus, Huh-5-2, HuH5-2 replicon cells, substance concentration with which the luciferase activity decreases by 50% compared with the untreated replicon control, incubation 4-5 days
Description: 1. Measurement of the Activity of Substances in a Cellular HCV-RNA Replication Assay (“Replicon System”)
Hepatitis C cannot as of yet be replicated reproducibly with high titres in cell culture. The activity of substances is therefore detected in the so-called replicon system. This comprises parts of the HCV genome or complete HCV genomes which are transferred into cell lines (here HuH-7 cells) of human origin. It is possible by insertion of a selection marker to obtain stable cell lines which, under selection pressure, replicate genomic or subgenomic RNA of HCV [Lohmann et al., Science 285, 110-113 (1999); Blight et al., Science 290, 1972-1974 (2000)]. The HuH5-2 cells used here harbour a selectable, luciferase-carrying, cell culture-adapted replicon as described in EP 1 043 399. The cells are cultured in Dulbecco's modified […] medium (DMEM) with 10% fetal calf serum (FCS), 1% Pen/Strep, 1% NEAA, 1% L-glutamine and 250 μg/ml Geneticin (G418). To carry out the assays described below, the cells are initially trypsinized and resuspended with the DMEM medium described above without G418. Depending on the assay, the cells are seeded in 24-well or 384-well plates. Depending on the reading or assay method used, transparent or white assay plates coated for cell culture are used.
The test compounds are made up as 50 mM stock solution in DMSO. To determine the EC50 values, the substances subsequently undergo a serial two-fold dilution in DMEM. The dilutions are transferred as doublets to the cell culture plates. The trypsinized cells which have been resuspended in medium are then added. The final concentration of the test substances in the cell culture wells is for example 300 μM to 0.0001 μM. Interferon-alpha serves as reference substance in concentrations of 60 IU/ml to 1 IU/ml. Antimycin-alpha serves as cytotoxicity control in concentrations of 2 μM to 0.03,M. Untreated cells serve as reference. The plates are then incubated at 37° C. under 5% CO2 for 4-5 days. The various measurements and the quantification of the HCV replicon RNA then take place.
Alamar Blue is a water-soluble redox indicator which is reduced as a function of the metabolic activity of the cells to be investigated. The Alamar Blue test is used as quantitative cytotoxicity assay. For this purpose, the cells are seeded with the appropriate test substances (see above) in white 384-well cell culture plates and incubated correspondingly at 37° C. under 5% CO2 for 4 days. 4 to 6 hours before the actual measurement, 5 μl of Alamar Blue are added per well. The fluorescence is then measured at an […]. If this test is to be followed by chemiluminescence measurement (see below) on the same plate, the dye solution is aspirated off from the cells and the latter are subsequently washed once with PBS. The PBS is likewise aspirated off again from the cells.
A reporter gene is introduced into the HCV replicon HuH5-2, in this case the gene for the luciferase enzyme of Photinus pyralis. After the addition of the luciferase reagent (20 mM Tris/HCl, 20 mM tricine, 2.67 mM MgSO4, 0.1 mM EDTA, 33.3 mM DTT, 0.27 mM coenzyme A, 0.47 mM luciferin, 0.53 mM ATP, pH 7.8) to the cells, the chemiluminescence is measured in a luminometer. Normally, the photons are measured in a period of from 10 sec to 60 sec.
The following data can be determined from the assay plates: • CC50=substance concentration in μM with which the Alamar Blue fluorescence decreases by 50% compared with the untreated control; • EC50=substance concentration with which the luciferase activity decreases by 50% compared with the untreated replicon control; • SI (selectivity index)=CC50/EC50. […]

Compound | SI (selectivity index) = CC50/EC50 | EC50 [nM]
CC(C)N(c1sc(-c2cccnc2)cc1C(=O)O)C(=O)[C@H]1CC[C@H](C)CC1 [Example 30] | >38 | 1300
CC(C)N(c1sc(C2CCN(S(C)(=O)=O)CC2)cc1C(=O)O)C(=O)[C@H]1CC[C@H](C)CC1 [Example 35, 2-{Isopropyl[(trans-4-methylcyclohexyl)carbonyl]amino}-5-[1-(methylsulfonyl)piperidin-4-yl]thiophene-3-carboxylic acid] | >18 | 2800
CC(C)N(c1sc(-c2ccc(F)cc2)cc1C(=O)O)C(=O)[C@H]1CC[C@H](C)CC1 [Example 19, 5-(4-Fluorophenyl)-2-{isopropyl[(trans-4-methylcyclohexyl)carbonyl]amino}thiophene-3-carboxylic acid] | >100 | 400
CC(C)N(C(=O)[C@@H]1CC[C@@H](C)C[C@@H]1O)c1sc(-c2ccccc2)cc1C(=O)O (single isomer, unassigned) [Example 54] | >277 | 180
C[C@H]1CC[C@H](C(=O)N(c2sc(-c3ccccc3)cc2C(=O)O)C2CCOCC2)CC1 [Example 42, 2-[[(trans-4-Methylcyclohexyl)carbonyl](tetrahydro-2H-pyran-4-yl)amino]-5-phenylthiophene-3-carboxylic acid] | >100 | 500
COCC(C)N(C(=O)C1CCC(C)CC1)c1sc(-c2ccccc2)cc1C(=O)O (centres unmarked) [Example 49] | >63 | 800
CC(C)N(c1sc(-c2ccccc2)cc1C(=O)O)C(=O)[C@H]1CC[C@H](C)CC1 [Example 1, 2-[Isopropyl-(trans-4-methylcyclohexanecarbonyl)amino]-5-phenylthiophene-3-carboxylic acid] | >50 | 1000
